Measured values published in ChEMBL document CHEMBL5584255, “Synthesis and antibacterial medicinal evaluation of carbothioamido hydrazonyl thiazolylquinolone with multitargeting antimicrobial potential to combat increasingly global resistance” (Eur J Med Chem, 2024).
≈ marks a conversion by molar mass, not a printed value.

Legend:
Type in all cases: functional
Escherichia coli [1] = test: Antibacterial activity against drug-resistant Escherichia coli by microbroth dilution method
Pseudomonas aeruginosa [2] = test: Antibacterial activity against Pseudomonas aeruginosa by microbroth dilution method
Pseudomonas aeruginosa [3] = test: Antibacterial activity against Pseudomonas aeruginosa ATCC 27853 by microbroth dilution method
Staphylococcus aureus [4] = test: Antibacterial activity against methicillin-resistant Staphylococcus aureus N315 by microbroth dilution method
Klebsiella pneumoniae = test: Antibacterial activity against Klebsiella pneumoniae by microbroth dilution method
Candida albicans [5] = test: Antifungal activity against Candida albicans ATCC 90023
Enterococcus faecalis = test: Antibacterial activity against drug-resistant Enterococcus faecalis by microbroth dilution method
Candida tropicalis = test: Antifungal activity against drug-resistant Candida tropicalis
Candida parapsilosis = test: Antifungal activity against Candida parapsilosis ATCC 22019; conditions: Lodderomyces parapsilosis
Candida albicans [6] = test: Antifungal activity against drug-resistant Candida albicans
Escherichia coli [7] = test: Antibacterial activity against Escherichia coli ATCC 25922 by microbroth dilution method
Staphylococcus aureus [8] = test: Antibacterial activity against Staphylococcus aureus ATCC 25923 by microbroth dilution method
Aspergillus fumigatus = test: Antifungal activity against Aspergillus fumigatus
Staphylococcus aureus [9] = test: Antibacterial activity against drug-resistant Staphylococcus aureus by microbroth dilution method
Staphylococcus aureus [10] = test: Antibacterial activity against Staphylococcus aureus ATCC 29213 by microbroth dilution method
Acinetobacter baumannii = test: Antibacterial activity against Acinetobacter baumannii by microbroth dilution method

Row | Structure (SMILES) | MIC (Escherichia coli [1]) [µM] | MIC (Pseudomonas aeruginosa [2]) [µM] | MIC (Pseudomonas aeruginosa [3]) [µM] | MIC (Staphylococcus aureus [4]) [µM] | MIC (Klebsiella pneumoniae) [µM] | MIC (Candida albicans [5]) [µM] | MIC (Enterococcus faecalis) [µM] | MIC (Candida tropicalis) [µM] | MIC (Candida parapsilosis) [µM] | MIC (Candida albicans [6]) [µM] | MIC (Escherichia coli [7]) [µM] | MIC (Staphylococcus aureus [8]) [µM] | MIC (Aspergillus fumigatus) [µM] | MIC (Staphylococcus aureus [9]) [µM] | MIC (Staphylococcus aureus [10]) [µM] | MIC (Acinetobacter baumannii) [µM]
1 | C/C(Cn1cc(-c2csc(C)n2)c(=O)c2cccc(F)c21)=N\NC(N)=S | 329 (≈ 128 µg/mL) | 329 (≈ 128 µg/mL) | 329 (≈ 128 µg/mL) | 1320 (≈ 513 µg/mL) | 1320 (≈ 513 µg/mL) | 1320 (≈ 513 µg/mL) | 658 (≈ 256 µg/mL) | 329 (≈ 128 µg/mL) | 658 (≈ 256 µg/mL) | 1320 (≈ 513 µg/mL) | 329 (≈ 128 µg/mL) | 658 (≈ 256 µg/mL) | 658 (≈ 256 µg/mL) | 1320 (≈ 513 µg/mL) | 329 (≈ 128 µg/mL) | 329 (≈ 128 µg/mL)
2 | Nc1nc(-c2c[nH]c3ccc(F)cc3c2=O)cs1 | 490 (≈ 128 µg/mL) | 981 (≈ 256 µg/mL) | 245 (≈ 64 µg/mL) | 490 (≈ 128 µg/mL) | 490 (≈ 128 µg/mL) | 61 (≈ 15.9 µg/mL) | 490 (≈ 128 µg/mL) | 490 (≈ 128 µg/mL) | 245 (≈ 64 µg/mL) | 245 (≈ 64 µg/mL) | 490 (≈ 128 µg/mL) | 490 (≈ 128 µg/mL) | 245 (≈ 64 µg/mL) | 490 (≈ 128 µg/mL) | 490 (≈ 128 µg/mL) | 490 (≈ 128 µg/mL)
3 | Cc1nc(-c2c[nH]c3ccc(F)cc3c2=O)cs1 | 1970 (≈ 513 µg/mL) | 985 (≈ 256 µg/mL) | 492 (≈ 128 µg/mL) | 1970 (≈ 513 µg/mL) | 1970 (≈ 513 µg/mL) | 492 (≈ 128 µg/mL) | 985 (≈ 256 µg/mL) | 985 (≈ 256 µg/mL) | 492 (≈ 128 µg/mL) | 985 (≈ 256 µg/mL) | 492 (≈ 128 µg/mL) | 1970 (≈ 513 µg/mL) | 985 (≈ 256 µg/mL) | 1970 (≈ 513 µg/mL) | 985 (≈ 256 µg/mL) | 492 (≈ 128 µg/mL)
4 | OC(Cn1cncn1)(Cn1cncn1)c1ccc(F)cc1F [FLUCONAZOLE] |  |  |  |  |  | 3 (≈ 0.919 µg/mL) |  | 25 (≈ 7.66 µg/mL) | 6 (≈ 1.84 µg/mL) | 13 (≈ 3.98 µg/mL) |  |  | 802 (≈ 246 µg/mL) |  |  | 
5 | CC(=O)Cn1cc(-c2csc(C)n2)c(=O)c2cc(F)c(Cl)cc21 | 731 (≈ 256 µg/mL) | 731 (≈ 256 µg/mL) | 366 (≈ 128 µg/mL) | 731 (≈ 256 µg/mL) | 731 (≈ 256 µg/mL) | 91 (≈ 31.9 µg/mL) | 366 (≈ 128 µg/mL) | 731 (≈ 256 µg/mL) | 366 (≈ 128 µg/mL) | 366 (≈ 128 µg/mL) | 731 (≈ 256 µg/mL) | 366 (≈ 128 µg/mL) | 731 (≈ 256 µg/mL) | 366 (≈ 128 µg/mL) | 366 (≈ 128 µg/mL) | 731 (≈ 256 µg/mL)
6 | C/C(Cn1cc(-c2csc(N)n2)c(=O)c2cccc(F)c21)=N\NC(N)=S | 656 (≈ 256 µg/mL) | 656 (≈ 256 µg/mL) | 328 (≈ 128 µg/mL) | 41 (≈ 16 µg/mL) | 328 (≈ 128 µg/mL) | 328 (≈ 128 µg/mL) | 328 (≈ 128 µg/mL) | 656 (≈ 256 µg/mL) | 656 (≈ 256 µg/mL) | 656 (≈ 256 µg/mL) | 328 (≈ 128 µg/mL) | 41 (≈ 16 µg/mL) | 1310 (≈ 513 µg/mL) | 21 (≈ 8.2 µg/mL) | 21 (≈ 8.2 µg/mL) | 656 (≈ 256 µg/mL)
7 | Nc1nc(-c2c[nH]c3c(F)cccc3c2=O)cs1 | 981 (≈ 256 µg/mL) | 981 (≈ 256 µg/mL) | 981 (≈ 256 µg/mL) | 981 (≈ 256 µg/mL) | 981 (≈ 256 µg/mL) | 490 (≈ 128 µg/mL) | 490 (≈ 128 µg/mL) | 981 (≈ 256 µg/mL) | 245 (≈ 64 µg/mL) | 981 (≈ 256 µg/mL) | 981 (≈ 256 µg/mL) | 981 (≈ 256 µg/mL) | 490 (≈ 128 µg/mL) | 981 (≈ 256 µg/mL) | 981 (≈ 256 µg/mL) | 490 (≈ 128 µg/mL)
8 | CC(=O)Cn1cc(-c2csc(N)n2)c(=O)c2cc(F)cc(F)c21 | 382 (≈ 128 µg/mL) | 382 (≈ 128 µg/mL) | 191 (≈ 64 µg/mL) | 382 (≈ 128 µg/mL) | 764 (≈ 256 µg/mL) | 382 (≈ 128 µg/mL) | 382 (≈ 128 µg/mL) | 382 (≈ 128 µg/mL) | 764 (≈ 256 µg/mL) | 764 (≈ 256 µg/mL) | 382 (≈ 128 µg/mL) | 382 (≈ 128 µg/mL) | 382 (≈ 128 µg/mL) | 764 (≈ 256 µg/mL) | 382 (≈ 128 µg/mL) | 382 (≈ 128 µg/mL)
9 | Nc1nc(-c2c[nH]c3cc(F)c(F)cc3c2=O)cs1 | 459 (≈ 128 µg/mL) | 459 (≈ 128 µg/mL) | 459 (≈ 128 µg/mL) | 459 (≈ 128 µg/mL) | 918 (≈ 256 µg/mL) | 229 (≈ 64 µg/mL) | 918 (≈ 256 µg/mL) | 459 (≈ 128 µg/mL) | 459 (≈ 128 µg/mL) | 229 (≈ 64 µg/mL) | 459 (≈ 128 µg/mL) | 459 (≈ 128 µg/mL) | 229 (≈ 64 µg/mL) | 459 (≈ 128 µg/mL) | 459 (≈ 128 µg/mL) | 918 (≈ 256 µg/mL)
10 | C/C(Cn1cc(-c2csc(C)n2)c(=O)c2cc(F)c(F)cc21)=N\NC(N)=S | 1260 (≈ 513 µg/mL) | 314 (≈ 128 µg/mL) | 314 (≈ 128 µg/mL) | 1260 (≈ 513 µg/mL) | 1260 (≈ 513 µg/mL) | 1260 (≈ 513 µg/mL) | 629 (≈ 256 µg/mL) | 1260 (≈ 513 µg/mL) | 1260 (≈ 513 µg/mL) | 1260 (≈ 513 µg/mL) | 1260 (≈ 513 µg/mL) | 1260 (≈ 513 µg/mL) | 1260 (≈ 513 µg/mL) | 1260 (≈ 513 µg/mL) | 1260 (≈ 513 µg/mL) | 314 (≈ 128 µg/mL)
11 | CC(=O)Cn1cc(-c2csc(N)n2)c(=O)c2cccc(F)c21 | 807 (≈ 256 µg/mL) | 807 (≈ 256 µg/mL) | 404 (≈ 128 µg/mL) | 404 (≈ 128 µg/mL) | 404 (≈ 128 µg/mL) | 404 (≈ 128 µg/mL) | 404 (≈ 128 µg/mL) | 202 (≈ 64.1 µg/mL) | 404 (≈ 128 µg/mL) | 404 (≈ 128 µg/mL) | 807 (≈ 256 µg/mL) | 404 (≈ 128 µg/mL) | 404 (≈ 128 µg/mL) | 807 (≈ 256 µg/mL) | 807 (≈ 256 µg/mL) | 404 (≈ 128 µg/mL)
